Columns and labels:
[1] = Comparison of milk-solubility of CoQ10 and CDQ10 (saturation, HPLC); format: physicochemical; details: fresh milk 3.5% milk fat, room temperature, addition till saturation, filtrate
Procedure: β-Cyclodextrin (1.575 g, 1.39 mmole) was dissolved in 13 mL of distilled water at 60-70° C. Then 1.00 g (1.16 mmole) of CoQ10 were added to the dissolved β-cyclodextrin, and the mixture was stirred for 20 minutes at 60-70° C. After stirring for some minutes the CDQ10 complex started to precipitate. The reaction mixture was kept stirring for about 8 hours at 60-70° C., and about 2 hours at room temperature, till the formation of a homogenous paste. Then the obtained mixture was under stirring at room temperature added to fresh milk containing 3.5% of milk fat (Ljubljanske mlekarne) till saturation. Into another milk aliquot was added under identical conditions CoQ10 till saturation. […]

[2] = Dissolution of CoQ10 in dairy products and orange juice; format: physicochemical; details: about 35-37 mg CoQ10 in about 200 g product
Procedure: β-Cyclodextrin (7.90 g, 6.95 mmole) was dissolved in distilled water (68 mL) at 65-70° C., and under stirring was added CoQ10 (5.00 g, 5.79 mmole). After about 30 minutes the CDQ10 complex precipitated. The reaction mixture was kept stirring for about 10 hours at 70° C., and 10 hours at room temperature, till the formation of an intensive yellow coloured paste. Then equal aliquots (each 500 μL containing about 37 mg of CoQ10 in the form of CDQ10) of the obtained mixture were admixed to about 200 g each: milk (3.5% of milk fat, Ljubljanske miekarne), liquid yoghurt (1.3% of milk fat, Ljubljanske miekarne), fruit yoghurt (peach, Ljubljanske miekarne) and orange juice (100%, Rauch). The obtained preparations were organoleptically compared with non-lemented supplemented milk, liquid yoghurt, fruit yoghurt and orange juice, as well as with those supplemented each with about 35-37 mg CoQ10. As CoQ10 was not dissolved in said products, they were not included in the tests. The tests were performed by 10-21 randomly chosen consumers.

Q: Which “Concentration of CoQ10 in milk” value [1] does the source give for `COC1=C(OC)C(=O)C(C/C=C(\C)CC/C=C(\C)CC/C=C(\C)CC/C=C(\C)CC/C=C(\C)CC/C=C(\C)CC/C=C(\C)CC/C=C(\C)CC/C=C(\C)CCC=C(C)C)=C(C)C1=O` [CoQ10, coenzyme Q10] here?
A: 3.2 µg/g

Q: And the “dissolution in milk, liquid yoghurt, fruit yoghurt and orange juice” value [2]?
A: not dissolved
